# Reference: patent US12581252B2, “Substituted pyrrolo[3,4-b]pyridines as PI3K-α inhibitors” (Relay Therapeutics, Inc., priority 2020, dated 2026)
# Molecular target: H1047R PIK3CA enzyme (Homo sapiens, UniProt P42336, H1047R)
# Test: ADP-Glo Biochemical PIK3CA Kinase Assay
# Sequence of H1047R PIK3CA enzyme (P42336 whole entry H1047R): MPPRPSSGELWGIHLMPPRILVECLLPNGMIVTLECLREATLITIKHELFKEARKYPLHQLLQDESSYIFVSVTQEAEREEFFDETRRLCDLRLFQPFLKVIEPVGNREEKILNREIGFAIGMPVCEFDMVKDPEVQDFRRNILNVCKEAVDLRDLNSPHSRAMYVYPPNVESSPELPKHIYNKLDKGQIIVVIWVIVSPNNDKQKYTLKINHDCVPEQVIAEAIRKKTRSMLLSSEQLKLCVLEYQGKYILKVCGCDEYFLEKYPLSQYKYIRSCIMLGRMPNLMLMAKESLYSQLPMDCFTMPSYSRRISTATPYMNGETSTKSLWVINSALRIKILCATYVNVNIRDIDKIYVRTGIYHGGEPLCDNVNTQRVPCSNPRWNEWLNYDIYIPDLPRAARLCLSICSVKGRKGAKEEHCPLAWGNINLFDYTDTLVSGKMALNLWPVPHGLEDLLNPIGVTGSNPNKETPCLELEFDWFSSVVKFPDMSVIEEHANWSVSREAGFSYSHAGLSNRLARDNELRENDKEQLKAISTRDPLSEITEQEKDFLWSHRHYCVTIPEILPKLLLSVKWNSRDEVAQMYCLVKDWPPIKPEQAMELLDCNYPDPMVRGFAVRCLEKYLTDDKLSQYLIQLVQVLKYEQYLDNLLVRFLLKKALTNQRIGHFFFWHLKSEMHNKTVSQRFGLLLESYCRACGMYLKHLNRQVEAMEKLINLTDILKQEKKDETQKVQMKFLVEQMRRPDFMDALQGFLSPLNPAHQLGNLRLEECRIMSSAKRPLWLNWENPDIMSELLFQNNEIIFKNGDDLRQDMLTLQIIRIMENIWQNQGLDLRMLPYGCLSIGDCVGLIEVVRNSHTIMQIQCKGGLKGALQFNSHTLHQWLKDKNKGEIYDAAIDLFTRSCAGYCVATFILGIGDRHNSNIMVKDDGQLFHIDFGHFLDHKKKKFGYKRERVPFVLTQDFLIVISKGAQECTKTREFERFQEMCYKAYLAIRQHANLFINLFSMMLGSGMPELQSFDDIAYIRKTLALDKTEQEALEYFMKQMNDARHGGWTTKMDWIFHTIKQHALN
# Sequence of H1047R PIK3CA enzyme (P27986 whole entry partner): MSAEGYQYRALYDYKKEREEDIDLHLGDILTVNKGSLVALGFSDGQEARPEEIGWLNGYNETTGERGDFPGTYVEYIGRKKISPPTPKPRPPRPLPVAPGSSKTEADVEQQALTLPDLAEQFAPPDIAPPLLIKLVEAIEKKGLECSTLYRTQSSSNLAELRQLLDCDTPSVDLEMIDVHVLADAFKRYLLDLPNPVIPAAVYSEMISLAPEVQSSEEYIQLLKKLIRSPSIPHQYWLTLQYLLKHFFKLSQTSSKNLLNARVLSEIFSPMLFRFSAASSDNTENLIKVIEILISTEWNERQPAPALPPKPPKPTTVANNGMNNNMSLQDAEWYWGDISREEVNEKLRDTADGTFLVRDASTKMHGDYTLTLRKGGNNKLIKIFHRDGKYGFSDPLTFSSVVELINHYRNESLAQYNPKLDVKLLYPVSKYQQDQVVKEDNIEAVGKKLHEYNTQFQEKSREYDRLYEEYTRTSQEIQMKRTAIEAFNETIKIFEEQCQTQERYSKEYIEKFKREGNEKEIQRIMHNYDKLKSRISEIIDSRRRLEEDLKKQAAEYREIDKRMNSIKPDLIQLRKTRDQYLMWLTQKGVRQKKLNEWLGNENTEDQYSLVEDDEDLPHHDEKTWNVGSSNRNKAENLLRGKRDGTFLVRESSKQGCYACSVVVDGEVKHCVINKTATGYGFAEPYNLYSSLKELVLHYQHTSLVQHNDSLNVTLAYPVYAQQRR
row,Structure (SMILES),IC50
1,"O=C(Nc1cc(C2(O)CC2)cc2c1C(c1cc(F)ccc1Cl)NC2=O)c1cc(F)cc(C(F)(F)F)c1 (stereo not shown) [Compound I-374, N-[3-(2-chloro-5-fluorophenyl)-6-(1-hydroxycyclopropyl)-1-oxo-2,3-dihydro-1H-isoindol-4-yl]-3-fluoro-5-(trifluoromethyl)benzamide]",≤ 0.1 µM
2,Cc1ccccc1C1NC(=O)c2cccc(NC(=O)c3ccsn3)c21 (stereo not shown) [Compound I-451],10 to 100 µM
3,"O=C(Nc1c(F)ccc2c1C(c1cc(F)ccc1C(F)F)NC2=O)c1cc(F)cc(C(F)(F)F)c1 (stereo not shown) [Compound I-283, N-(3-(2-(Difluoromethyl)-5-fluorophenyl)-5-fluoro-1-oxoisoindolin-4-yl)-3-fluoro-5-(trifluoromethyl)benzamide]",0.5 to 1 µM
4,Cc1ccccc1[C@@H]1NC(=O)c2nccc(NC(=O)N3CCc4ccc(F)cc43)c21 [Compound I-246],0.1 to 0.5 µM
5,Cn1nccc1-c1cc(NC(=O)c2cc(F)cc(C(F)(F)F)c2)c2c(c1)C(=O)N[C@@H]2c1cc(F)ccc1Cl [Compound I-1137],1 to 10 µM
6,O=C(Nc1cccc2c1C1(CCc3ccccc31)NC2=O)c1cc(F)cc(C(F)(F)F)c1 (stereo not shown) [Compound I-188],10 to 100 µM
7,CN1CC(c2cc(NC(=O)c3cc(F)cc(C(F)(F)F)c3)c3c(c2)C(=O)NC3c2cc(F)ccc2Cl)NCC1=O (stereo not shown) [Compound I-1277],≤ 0.1 µM
8,O=C(Nc1cc(-c2cnc3nccn3c2)cc2c1[C@@H](c1cc(F)ccc1Cl)NC2=O)c1cc(F)cc(C(F)(F)F)c1 [Compound I-883],1 to 10 µM
9,O=C1NC(c2cc(F)ccc2Cl)c2c(NC(=O)N3CCNc4ccccc43)cc(Br)cc21 (stereo not shown) [Compound I-716],1 to 10 µM
10,NC(=O)c1cnccc1-c1cc(NC(=O)c2cc(F)cc(C(F)(F)F)c2)c2c(c1)C(=O)NC2c1cc(F)ccc1Cl (stereo not shown) [Compound I-1215],0.1 to 0.5 µM
11,Cc1ccccc1-n1[nH]c(=O)c2cccc(NC(=O)c3coc4c(F)cc(Cl)cc34)c21 [Compound I-252],0.1 to 0.5 µM
12,N#Cc1ccc(C2NC(=O)c3cccc(NC(=O)c4cc(F)cc(C(F)(F)F)c4)c32)c(Cl)c1 (stereo not shown) [Compound I-422],10 to 100 µM
13,O=C1NC(c2cc(F)ccc2Cl)c2c(Nc3nccc4cccnc34)cc(Br)cc21 (stereo not shown) [Compound I-761],10 to 100 µM
14,Cc1ccccc1C1NC(=O)c2cccc(NC(=O)c3nc(C)c4ccc(Cl)cn34)c21 (stereo not shown) [Compound I-285],10 to 100 µM
15,Cc1ccccc1C1NC(=O)Nc2cccc(OC(=O)c3csc4ccccc34)c21 (stereo not shown) [Compound I-295],1 to 10 µM
16,O=C(Nc1cc(-c2ccc3ncnn3c2)nc2c1[C@@H](c1cc(F)ccc1Cl)NC2=O)c1cc(F)cc(C(F)(F)F)c1 [Compound I-1230],0.1 to 0.5 µM

row,Structure (SMILES),IC50
1,Cc1ccccc1C1NC(=O)c2cc([C@@H](C)NC(=O)OC(C)(C)C)cc(NC(=O)c3csc4ccccc34)c21 (mixture of isomers) [Compound I-89],0.1 to 0.5 µM
2,Cc1ccccc1C1NC(=O)c2cccc(NC(=O)c3nn(C)c4ccccc34)c21 (stereo not shown) [Compound I-17],10 to 100 µM
3,O=C(Nc1cc(-c2ccn[nH]2)cc2c1C(c1cc(F)ccc1Cl)NC2=O)c1cc(F)cc(C(F)(F)F)c1 (stereo not shown) [Compound I-815],≤ 0.1 µM
4,O=C(Nc1cc(-n2ccnc2)cc2c1[C@H](c1cc(F)ccc1Cl)NC2=O)c1cc(F)cc(C(F)(F)F)c1 (stereo in doubt) [Compound I-1126],≤ 0.1 µM
5,O=C1NC(c2cc(F)ccc2C(F)F)c2c(NC(=O)c3nsc4ccccc34)cc(Br)cc21 (stereo not shown) [Compound I-612],≤ 0.1 µM
6,"Cc1ccccc1C1NC(=O)c2nccc(NC(=O)N3CCc4ccccc43)c21 (stereo not shown) [Compound I-147, N-(7-oxo-5-(o-tolyl)-6,7-dihydro-5H-pyrrolo[3,4-b]pyridin-4-yl)indoline-1-carboxamide]",0.1 to 0.5 µM
7,O=C(Nc1cc(-c2ccc3ncnn3c2)cc2c1[C@@H](c1cc(F)cc(F)c1Cl)NC2=O)c1cc(F)cc(C(F)(F)F)c1 (stereo in doubt) [Compound I-1063],10 to 100 µM
8,Cc1cc(F)cc(C(=O)Nc2cc(Br)cc3c2C(c2cc(F)ccc2Cl)NC3=O)c1 (stereo not shown) [Compound I-951],1 to 10 µM
9,Cc1ccc(F)cc1C1NC(=O)c2cccc(NC(=O)c3cc(F)cc(C(F)(F)F)c3)c21 (stereo not shown) [Compound I-281],0.1 to 0.5 µM
10,O=C(Nc1cc(Br)c(Cl)c2c1C(c1cc(F)ccc1Cl)NC2=O)c1cc(F)cc(C(F)(F)F)c1 (stereo not shown) [Compound I-847],≤ 0.1 µM
11,O=C(Nc1cccc2c1C(c1cc(F)ccc1Cl)NC2=O)c1cc(F)cc(C(F)(F)F)c1 (stereo not shown) [Compound I-372],≤ 0.1 µM
12,O=C(Nc1cc(-c2ccc3ncnn3c2)nc2c1C(c1cc(F)ccc1Cl)NC2=O)c1cc(F)cc(C(F)(F)F)c1 (stereo not shown) [Compound I-1226],≤ 0.1 µM
13,O=C(Nc1cc(NCC(F)(F)F)nc2c1C(c1cc(F)ccc1Cl)NC2=O)c1cc(F)cc(C(F)(F)F)c1 (stereo not shown) [Compound I-321],≤ 0.1 µM
14,O=C(Nc1cc(Br)cc2c1C(c1cc(F)ccc1Cl)NC2=O)c1ccc[n+]([O-])c1 (stereo not shown) [Compound I-1284],10 to 100 µM
15,Cc1ccccc1C1NC(=O)c2cccc(NC(=O)c3nsc4ccc(F)cc34)c21 (stereo not shown) [Compound I-105],0.1 to 0.5 µM

# Results, then the compound that gave them:
row,IC50,Structure (SMILES)
1,10 to 100 µM,Cn1nc(Nc2cc(Br)cc3c2C(c2cc(F)ccc2Cl)NC3=O)c2ccccc21 (stereo not shown) [Compound I-1349]
2,0.5 to 1 µM,O=C1N[C@@H](c2cc(F)ccc2Cl)c2c(NC(=O)N3C[C@H](O)c4ccc(F)cc43)cccc21 (stereo in doubt) [Compound I-2172]
3,10 to 100 µM,O=C1NC(c2cc(F)ccc2Cl)c2c(NC(=O)C3(c4cc(F)ccc4F)CCCC3)cc(Br)cc21 (stereo not shown) [Compound I-1819]
4,1 to 10 µM,O=C1NC(c2cc(F)ccc2Cl)c2c(NC(=O)N3CCc4cc(OC(F)(F)F)ccc43)cccc21 (stereo not shown) [Compound I-2481]
5,≤ 0.1 µM,O=C(Nc1cc(CS(=O)(=O)N2CCOCC2)cc2c1C(c1cc(F)ccc1Cl)NC2=O)c1cc(F)cc(C(F)(F)F)c1 (stereo not shown) [Compound I-1364]
6,≤ 0.1 µM,"O=C1C[C@@H](c2cc(NC(=O)c3cc(F)cc(C(F)(F)F)c3)c3c(c2)C(=O)N[C@H]3c2cc(F)ccc2Cl)CN1 (single isomer, unassigned) [Compound I-1710]"
7,10 to 100 µM,CC(=O)N[C@@H]1CCC[C@H](C(=O)Nc2cc(-c3ccc4ncnn4c3)cc3c2C(c2cc(F)ccc2Cl)NC3=O)C1 (mixture of isomers) [Compound I-1842]
8,≤ 0.1 µM,CN(C)S(=O)(=O)n1cc(-c2cc(NC(=O)c3cc(F)cc(C(F)(F)F)c3)c3c(c2)C(=O)NC3c2cc(F)ccc2Cl)cn1 (stereo not shown) [Compound I-1592]
9,0.5 to 1 µM,"O=C1N[C@@H](c2cc(F)ccc2Cl)c2c(NC(=O)N3C[C@@](O)(C(F)(F)F)c4cc(F)ccc43)cc(-n3ncccc3=O)cc21 (single isomer, unassigned) [Compound I-2534]"
10,≤ 0.1 µM,O=C(Nc1cc(-c2ccn3cncc3c2)cc2c1C(c1cc(F)ccc1Cl)NC2=O)c1cc(F)cc(C(F)(F)F)c1 (stereo not shown) [Compound I-1503]
11,10 to 100 µM,O=C1N[C@H](c2cc(F)ccc2Cl)c2c(NC(=O)[C@H]3CC[C@@H](C(F)(F)F)C3)cccc21 [Compound I-2083]
12,10 to 100 µM,O=C(Nc1cccc2c1C(CO)NC2=O)c1cc(F)cc(C(F)(F)F)c1 (stereo not shown) [Compound I-1666]
13,≤ 0.1 µM,O=C(Nc1cc(-c2ccc3nc(C(F)F)nn3c2)cc2c1[C@H](c1cc(F)ccc1Cl)NC2=O)c1cc(F)cc(C(F)(F)F)c1 [Compound I-1987]
14,10 to 100 µM,O=C1NC(c2cc(F)ccc2Cl)c2c(Nc3cc(CO)c(C(F)(F)F)cn3)cccc21 (stereo not shown) [Compound I-1377]
15,10 to 100 µM,N#CCCc1cc(NC(=O)c2cc(F)cc(C(F)(F)F)c2)c2c(c1)C(=O)N[C@@H]2c1cc(F)ccc1Cl (stereo in doubt) [Compound I-2170]
16,10 to 100 µM,O=C1N[C@H](c2cc(F)ccc2Cl)c2c(NC(=O)[C@@H]3CC[C@H](C(F)(F)F)C3)cccc21 [Compound I-2084]
17,≤ 0.1 µM,O=C(Nc1cc(-c2ccc3ncc(Cl)n3c2)cc2c1C(c1cc(F)ccc1Cl)NC2=O)c1cc(F)cc(C(F)(F)F)c1 (stereo not shown) [Compound I-1694]
18,1 to 10 µM,"N#Cc1cc(NC(=O)N2C[C@](O)(C(F)(F)F)c3cc(F)ccc32)c2c(c1)C(=O)N[C@H]2c1cc(F)ccc1Cl (single isomer, unassigned) [Compound I-2561]"
19,1 to 10 µM,O=C(CC1CC(F)(F)C1(F)F)Nc1cc(Br)cc2c1C(c1cc(F)ccc1Cl)NC2=O (stereo not shown) [Compound I-1633]
20,1 to 10 µM,O=C(CCc1ccccc1)Nc1cc(-c2ccc3ncnn3c2)cc2c1C(c1cc(F)ccc1Cl)NC2=O (stereo not shown) [Compound I-1628]
21,10 to 100 µM,"O=C1N[C@@H](c2cc(F)ccc2Cl)c2c(NC(=O)N3C[C@H](O)c4cccc(F)c43)cccc21 (single isomer, unassigned) [Compound I-2209]"
22,10 to 100 µM,NC(=O)CC(=O)Nc1cc(-c2ccc3ncnn3c2)cc2c1C(c1cc(F)ccc1Cl)NC2=O (stereo not shown) [Compound I-1983]
23,1 to 10 µM,"O=C1N[C@@H](c2cc(F)ccc2Cl)c2c(NC(=O)N3C[C@@](O)(C(F)F)c4cc(F)ccc43)cc(F)cc21 (single isomer, unassigned) [Compound I-2633]"
24,10 to 100 µM,"O=C1N[C@H](c2cc(F)ccc2Cl)c2c(NC(=O)[C@H]3CC(C(F)(F)F)C[C@@H](O)C3)cc(Br)cc21 (single isomer, unassigned) [Compound I-2274]"
25,≤ 0.1 µM,Cc1cc2ncnn2cc1-c1cc(NC(=O)c2cc(F)cc(C(F)(F)F)c2)c2c(c1)C(=O)N[C@H]2c1cc(F)ccc1Cl [Compound I-1874]
26,≤ 0.1 µM,CNc1cc(NC(=O)N2C[C@](O)(C(F)F)c3cc(F)ccc32)c2c(c1)C(=O)N[C@@H]2c1cc(F)ccc1Cl [Compound I-2677]
27,1 to 10 µM,"Cc1cn(-c2cc(NC(=O)N3C[C@@](O)(C(F)(F)F)c4cc(F)ccc43)c3c(c2)C(=O)N[C@@H]3c2cc(F)ccc2Cl)cn1 (single isomer, unassigned) [Compound I-2636]"
28,10 to 100 µM,"CC[C@@H](CC(=O)Nc1cccc2c1[C@@H](c1cc(F)ccc1Cl)NC2=O)[C@H](C)C(F)(F)F (single isomer, unassigned) [Compound I-2337]"
29,10 to 100 µM,O=C(Nc1cccc2c1C(C1CCCOC1)NC2=O)c1cc(F)cc(C(F)(F)F)c1 (racemic) [Compound I-1958]
30,1 to 10 µM,"Nc1cc(NC(=O)N2C[C@H](O)c3ccccc32)c2c(c1)C(=O)N[C@@H]2c1cc(F)ccc1Cl (single isomer, unassigned) [Compound I-2130]"
